Counter-ions that a name gives are not always drawn.
Columns and labels:
[1] = distribution in the body as function of time after intravenous administration, measured by scinticamera; type: in vivo, human; settings: for Time of Appearance in Gallbladder / Time of Appearance in Intestine / Blood T 1/2 / Liver T 1/2 / Maximum Liver Accumulation: approximately 0.25 millicurie per injection; for Blood T 1/2: elimination from blood into liver cells; for Liver T 1/2: elimination from liver cells into bile ducts and gallbladder; for Maximum Liver Accumulation: time of maximum accumulation
Description: These compounds were tested intravenously on humans. The total quantity of radioactivity per injection of the respectively injected aqueous test solution was approximately 0.25 millicurie in each instance.
The distribution in the body as function of time after administration was measured by scinticamera in the usual manner.

[2] = background statement in words; cited from earlier work

| Compound | Time of Appearance in Gallbladder ([1]; humans, intravenous) | Time of Appearance in Intestine ([1]; humans, intravenous) | Blood T 1/2 ([1]; humans, intravenous) | Liver T 1/2 ([1]; humans, intravenous) | Maximum Liver Accumulation ([1]; humans, intravenous) | enterohepatic cycle (reabsorption from the intestine into the bloodstream) ([1]; humans, intravenous, in words) | liver passage (from T 1/2 values) ([1]; humans, intravenous, in words) | times of appearance in the intestine and gallbladder, compared with B and C ([1]; humans, intravenous, in words) | concomitant gallbladder representation ([1]; patients having a healthy liver) | elimination from the liver [2] | maximum accumulation in the liver [2] |
| --- | --- | --- | --- | --- | --- | --- | --- | --- | --- | --- | --- |
| O=C(COCC(=O)Nc1c(I)cc(I)c(C(=O)O)c1I)Nc1c(I)cc(I)c(C(=O)O)c1I [A, diglycolic acid bis(3-carboxy-2,4,6-triiodoanilide)-131-iodine N-methylglucamine salt] | 25.5 min | 14.6 min | 3.22 min | 3.19 min | 16.5 min | absence of an enterohepatic cycle | markedly faster liver passage | markedly shorter than in the comparison substances B and C | a concomitant gallbladder representation is obtained | – | – |
| O=C1OC2(c3cc(I)c(O)c(I)c3Oc3c2cc(I)c(O)c3I)c2c(Cl)c(Cl)c(Cl)c(Cl)c21 [B, tetrachlorotetraiodofluorescein-131-iodine sodium salt] | 45 min | 45 min | 8.14 min | 10.24 min | 30 min | – | – | – | – | after a longer period of time | after a longer period of time |

— patent US3939204A, “Radioactive functional diagnostic agents” (priority 1972, dated 1976)
